Earlier results as cited in patent US20120258171A1, “COMPOSITION COMPRISING FESOTERODINE AND FIBER” (ratiopharm GmbH, priority 2009, published 2012).

Columns and labels:
[1] = tested on: overactive bladder; details: both Phase III studies, versus placebo
[2] = general statement on the active agent

CC(C)C(=O)Oc1ccc(CO)cc1[C@H](CCN(C(C)C)C(C)C)c1ccccc1 [Fesoterodine, 2-[(1R)-3-(di-isopropylamine)-1-phenylpropyl]-4-(hydroxymethyl)phenyl-isobutyrate]
improvement of clinically relevant end points (urge incontinence events/24 h, frequency of micturition, mean micturition volume) [1]: statistically significant improvements over a placebo
stability against hydrolysis [2]: not particularly stable against hydrolysis
